Values of other authors in patent US20070266895A1, “Aliphatic Hydrocarbon Soluble Red Dyes” (priority 2004, published 2007).

Cc1ccccc1/N=N/c1ccc(/N=N/c2c(O)ccc3ccccc23)c(C)c1 [C.I. Solvent Red 24]
direct solubility in essentially aliphatic hydrocarbon based fuels (diesel or home heating oil): virtually no direct solubility
direct solubility in aromatic hydrocarbon containing gasolines (dry powder dye): limited direct solubility
